The target in the assay is T1, human recombinant, purified wild type His-B-Raf protein kinase (Homo sapiens, UniProt P15056).
T1 construct: His
Briefly: B-Raf In Vitro ELISA Assay. Type of assay: biochemical. The settings on record: 2.5 nM B-Raf, 0.15 μM MEK1, 10 μM ATP; 1 hour preincubation at 25° C.; phosphorylation of MEK1. On the procedure: B-Raf In Vitro ELISA Assay
Activity of human recombinant, purified wild type His-B-Raf protein kinase was determined in vitro using an enzyme-linked immunosorbent assay (ELISA) assay format, which measures phosphorylation of the B-Raf substrate, human recombinant, purified His-derived (detagged) MEK1. The reaction utilized 2.5 nM B-Raf, 0.15 μM MEK1 and 10 μM adenosine triphosphate (ATP) in 40 mM N-(2-hydroxyethyl)piperazine-N′-(2-ethanesulfonic acid hemisodium salt (HEPES), 5 mM 1,4-dithio-DL-threitol (DTT), 10 mM MgCl2, 1 mM ethylenediaminetetraacetic acid (EDTA) and 0.2 M NaCl (1×HEPES buffer), with or without compound at various concentrations, in a total reaction volume of 25 μl in 384 well plates. B-Raf and compound were preincubated in 1×HEPES buffer for 1 hour at 25° C. Reactions were initiated with addition of MEK1 and ATP in 1×HEPES buffer and incubated at 25° C. for 50 minutes and reactions stopped by addition of 10 μl 175 mM EDTA (final concentration 50 mM) in 1×HEPES buffer. 5 μl of the assay mix was then diluted 1:20 into 50 mM EDTA in 1×HEPES buffer, transferred to 384 well black high protein binding plates and incubated overnight at 4° C. […] Blue fluorescent product was detected at excitation 325 nm and emission 420 nm using a TECAN Ultra plate reader. Data was graphed and IC50s calculated using Excel Fit (Microsoft).
A general note: ELISA stands for enzyme-linked immunosorbent assay.

Experimental findings from patent publication US20090054469A1, “QUINAZOLINONE DERIVATIVES AND THEIR USE AS B-RAF INHIBITORS” (ASTRAZENECA AB, priority 2005, published 2009) are described below.

As a reminder, the IC50 is the concentration that gives 50% inhibition.

Molecules are shown by their SMILES.

T1 sequence (P15056 whole entry): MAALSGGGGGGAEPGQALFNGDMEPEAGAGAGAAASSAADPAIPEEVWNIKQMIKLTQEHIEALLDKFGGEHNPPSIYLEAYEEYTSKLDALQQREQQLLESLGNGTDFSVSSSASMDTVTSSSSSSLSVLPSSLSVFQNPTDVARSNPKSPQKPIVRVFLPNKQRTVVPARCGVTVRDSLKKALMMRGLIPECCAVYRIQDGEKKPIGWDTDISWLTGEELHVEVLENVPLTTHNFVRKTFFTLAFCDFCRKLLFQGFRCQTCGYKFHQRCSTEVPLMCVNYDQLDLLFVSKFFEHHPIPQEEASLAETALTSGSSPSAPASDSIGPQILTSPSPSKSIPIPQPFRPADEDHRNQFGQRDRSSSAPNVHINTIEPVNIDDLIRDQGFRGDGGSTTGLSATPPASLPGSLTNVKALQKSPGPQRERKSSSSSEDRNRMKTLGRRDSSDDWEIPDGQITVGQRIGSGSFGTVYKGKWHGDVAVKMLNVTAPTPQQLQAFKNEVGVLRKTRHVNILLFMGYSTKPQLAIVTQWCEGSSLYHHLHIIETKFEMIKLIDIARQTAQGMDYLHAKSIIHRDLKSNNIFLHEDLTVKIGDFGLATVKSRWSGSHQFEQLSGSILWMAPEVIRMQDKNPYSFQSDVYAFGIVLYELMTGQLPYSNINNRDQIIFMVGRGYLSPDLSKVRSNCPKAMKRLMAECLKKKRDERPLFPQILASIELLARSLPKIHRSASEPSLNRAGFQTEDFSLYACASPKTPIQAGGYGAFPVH

Take `Cc1ccc(NC(=O)c2cccc(C(C)(C)C#N)c2)cc1NC(=O)c1ccc2nc[nH]c(=O)c2c1` [Example 1, N-(5-{[3-(1-Cyano-1-methylethyl)benzoyl]amino}-2-methylphenyl)-4-oxo-3,4-dihydroquinazoline-6-carboxamide]: the concentration for half-maximal inhibition (IC50) was 1 nM.
With `Cc1ccc(NC(=O)c2cccc(C(C)(C)C#N)c2)cc1NC(=O)c1ccc2ncn(C)c(=O)c2c1` [Example 6, N-(5-{[3-(1-Cyano-1-methylethyl)benzoyl]amino}-2-methylphenyl)-3-methyl-4-oxo-3,4-dihydroquinazoline-6-carboxamide] the figure was 3 nM.
